In patent publication US12616681B2, “Compositions and methods for treating renal injury” (priority 2019, dated 2026):

Test system: mice
Assay: Induction of CIAKI by intravenous contrast media in mice
Type: in vivo, C57/BL6 mice
Conditions: 10 gI/kg iv, 48 h after administration
Description: The two different […] in terms of viscosity and osmolality were administered intravenously to 5 mice for each group. Ten grams of iodine per body weight (gI/kg) of each CM was injected by a 26-gauge syringe through the tail vein. The blood samples for the analysis of functional assessment of kidney injury such as Cr, NGAL, and KIM-1 were taken at 48 h after administration (FIGS. 10(A, B)).

Structure (SMILES): CN(CC(O)CO)C(=O)c1c(I)c(NC(=O)C(CO)CO)c(I)c(C(=O)N(C)CC(O)CO)c1I (stereo not drawn) [Xenetix]
- Cr vs normal control: significant increase
- KIM-1 vs normal control: did not show significant differences
- NGAL vs normal control: did not show significant differences
